Test results reported in patent publication US20080305054A1, “Use of Glycosylated Flavanones for the Browning of Skin or Hair” (SYMRISE GMBH & CO. KG, priority 2004, published 2008).
Read-outs that look alike come from different tables or passages of the source.

Assays:
[1] = Cytotoxicity determination (MTT); assay type: cell-based, mouse; details: mouse, B16V mouse melanoma cells; Table 3, repeat of the Table 1 values; read-out: IC50 cytotox
Procedure: (§1) B16V mouse melanoma cells are disseminated in a 96-well microtitre plate in a concentration of 2×10^4 cells/well (B16V). After cultivation for 24 h at 37° C. and 5% CO2 in RPMI medium (B16V cells), enriched with 10% foetal calf serum, the medium is drawn off. Various concentrations of the test substances, dissolved in fresh medium enriched with 5% foetal calf serum, are added and incubated for a further 48 h. In parallel the cells are incubated with SDS as standard in concentrations of 0.01 mM, 0.1 mM, 1 mM and 10 mM. After incubation the medium is drawn off and the cells are incubated for 2 h with MTT (3-[4,5-dimethylthiazol-2-yl]2,5-diphenyl tetrazolium bromide). After extraction of the dye (MTT) with acetic acid SDS in DMSO (10 min), the absorption (A) is measured at 570 nm.
(§2) The mean and standard deviation of the controls, blanks and samples are calculated. The mean of the blank is subtracted from the means of the controls and samples. The viability of the cells is stated as a percentage relative to the controls (100%):
(§3) Viability (%)=[(Atest compound/Acontrol)×100]
(§4) The IC50 (mean inhibitory concentration) indicates the test substance concentration at which 50% of the cells are vital.

[2] = tested on: B16V mouse melanoma cells; test: Cytotoxicity determination (MTT); assay type: cell-based; details: MTT viability, 48 h incubation, concentration at which 50% of the cells are vital
Procedure: as §1, §2, §3, §4

[3] = tested on: B16V mouse melanoma cells; test: Pigmenting effect (stimulation of pigmentation); assay type: cell-based
Procedure: mouse melanoma cells are disseminated in a 96-well microtitre plate in a concentration of 5×10^3 cells/well. After cultivation for 24 h at 37° C. and 5% CO2 in RPMI medium, enriched with 10% foetal calf serum, various concentrations of the test substances and 10 nM α-MSH (α-melanocyte stimulating hormone) are added and incubated for a further 96 h. […] The stimulation of pigmentation in the presence of the test compounds was calculated using the following equation: Stimulation of pigmentation (%)=[(A test compound/A control)×100]-100 From the stimulation of pigmentation (%) in a series of dilutions of test compounds, the EC50 for each test compound was calculated. This is the concentration of a test compound at which pigmentation is stimulated by 50%.

[4] = tested on: tyrosinase; details: of 27 flavonoids tested; cited from earlier work
[5] = tested on: B16V melanoma cells; details: cited from earlier work
[6] = tested on: B16V melanoma cells; details: cited from earlier work; remark: listed apart in the source
[7] = tested on: glucose absorption; details: cited from earlier work
[8] = tested on: male rats; details: cited from earlier work
[9] = tested on: melanoma cells; details: cited from earlier work
[10] = tested on: melanoma cells; details: cited from earlier work; remark: listed apart in the source
[11] = tested on: melanin synthesis; details: cited from earlier work
[12] = 96 h with 10 nM α-MSH, concentration at which pigmentation is stimulated by 50%, non-cytotoxic concentration range
[13] = Table 3, repeat of the Table 2 values
[14] = Mus musculus, 96 h, 96 h with 10 nM α-MSH, concentration at which pigmentation is stimulated by 50%, non-cytotoxic concentration range
[15] = Mus musculus, read-out: EC50 pigm. effect, Table 3, repeat of the Table 2 values

**Q.** With `O=c1cc(-c2ccc(O)cc2)oc2cc(O)cc(O)c12` [Apigenin] as the compound, how does the IC50 at 48 h [1] read?
**A.** 33 µM

**Q.** What about the IC50 ([2]; Mus musculus, read-out: IC50) of the same compound?
**A.** 33 µM

**Q.** And the EC50 [3, 12]?
**A.** inactive

**Q.** And the EC50 pigm. effect [3, 13]?
**A.** inactive

**Q.** With `COc1ccc([C@@H]2CC(=O)c3c(O)cc(O)cc3O2)cc1O` [Hesperetin] as the compound, how does the IC50 at 48 h [1] read?
**A.** 40 µM

**Q.** And the IC50 ([2]; Mus musculus, read-out: IC50)?
**A.** 40 µM

**Q.** And the EC50 [3, 12]?
**A.** inactive

**Q.** And the EC50 pigm. effect [3, 13]?
**A.** inactive

**Q.** With `COc1ccc([C@@H]2CC(=O)c3c(O)cc(O[C@@H]4O[C@H](CO[C@@H]5O[C@@H](C)[C@H](O)[C@@H](O)[C@H]5O)[C@@H](O)[C@H](O)[C@H]4O)cc3O2)cc1O` [Hesperidin] as the compound, how does the IC50 at 48 h [1] read?
**A.** 1500 µM

**Q.** And the IC50 ([2]; Mus musculus, 48 h)?
**A.** > 1000 µM

**Q.** What about the EC50 [3, 14] of the same compound?
**A.** < 2 µM

**Q.** And the EC50 [3, 15]?
**A.** 1.5 µM

**Q.** Which IC50 at 48 h [1] does the source give for `O=c1c(O)c(-c2ccc(O)cc2)oc2cc(O)cc(O)c12` [Kaempferol] here?
**A.** 43 µM

**Q.** What about the IC50 ([2]; Mus musculus, read-out: IC50) of the same compound?
**A.** 43 µM

**Q.** What about the EC50 [3, 12] of the same compound?
**A.** inactive

**Q.** And the EC50 pigm. effect [3, 13]?
**A.** inactive

**Q.** And the tyrosinase inhibition [4]?
**A.** tyrosinase inhibition

**Q.** For `O=c1cc(-c2ccc(O)c(O)c2)oc2cc(O)cc(O)c12` [Luteolin], which IC50 at 48 h [1] is on record?
**A.** 37 µM

**Q.** And the IC50 ([2]; Mus musculus, read-out: IC50)?
**A.** 37 µM

**Q.** What about the EC50 [3, 12] of the same compound?
**A.** inactive

**Q.** And the EC50 pigm. effect [3, 13]?
**A.** inactive

**Q.** And the tyrosinase inhibition [4]?
**A.** tyrosinase inhibition

**Q.** Which results are given for `O=C1C[C@@H](c2ccc(O)cc2)Oc2cc(O)cc(O)c21` [Naringenin]?
**A.** IC50 at 48 h [1]: 30 µM; IC50 ([2]; Mus musculus, read-out: IC50): 30 µM; EC50 [3, 12]: inactive; EC50 pigm. effect [3, 13]: inactive

**Q.** What does the source list for `C[C@@H]1O[C@@H](O[C@H]2[C@H](Oc3cc(O)c4c(c3)OC(c3ccc(O)cc3)CC4=O)O[C@H](CO)[C@@H](O)[C@@H]2O)[C@H](O)[C@H](O)[C@H]1O` (stereo partly drawn) [Naringin]?
**A.** IC50 at 48 h [1]: > 10000 µM; IC50 [2]: > 10000 µM; EC50 [3, 15]: 0.5 µM

**Q.** Which IC50 at 48 h [1] does the source give for `COc1ccc(C2CC(=O)c3c(O)cc(OC4OC(CO)C(O)C(O)C4OC4OC(C)C(O)C(O)C4O)cc3O2)cc1O` (stereo not drawn) [Neohesperidin] here?
**A.** > 4000 µM

**Q.** What about the IC50 [2] of the same compound?
**A.** > 4000 µM

**Q.** What about the EC50 [3, 14] of the same compound?
**A.** < 2 µM

**Q.** What about the EC50 [3, 15] of the same compound?
**A.** 1 µM

**Q.** Which results are given for `O=C(CCc1ccc(O)cc1)c1c(O)cc(O)cc1O[C@@H]1O[C@H](CO)[C@@H](O)[C@H](O)[C@H]1O` [Phloridzin]?
**A.** melanin relative to the untreated control ([5]; 1 mM): +81%; cytotoxicity [6]: no cytotoxicity; inhibition of glucose absorption [7]: inhibitor of glucose absorption; toxicity to reproduction [7]: toxic to reproduction

**Q.** Which results are given for `O=c1c(O)c(-c2ccc(O)c(O)c2)oc2cc(O)cc(O)c12` [Quercetin]?
**A.** IC50 at 48 h [1]: 48 µM; IC50 ([2]; Mus musculus, read-out: IC50): 48 µM; EC50 ([3]; Mus musculus, 96 h with 10 nM α-MSH, concentration at which pigmentation is stimulated by 50%, non-cytotoxic concentration range, read-out: EC50): 15 µM; EC50 ([3]; Mus musculus, Table 3, repeat of the Table 2 values, read-out: EC50 pigm. effect): 15 µM; tyrosinase inhibition [4]: tyrosinase inhibition; hepatotoxic effect [8]: hepatotoxic effect; melanin relative to the untreated control ([5]; maximum non-cytotoxic concentration of 0.003 mM): +38%; maximum non-cytotoxic concentration [6]: 0.003 mM

**Q.** Which “effect on melanin synthesis” value [9] does the source give for `OC[C@H]1O[C@@H](Oc2cc3c(O)cc(O)cc3[o+]c2-c2ccc(O)c(O)c2)[C@H](O)[C@@H](O)[C@@H]1O` [cyanidin-3-β-D-glucoside] here?
**A.** stimulates melanin synthesis

**Q.** Which “effect on melanin production / melanogenesis” value [10] does the source give for `O=c1c(-c2ccc(O)cc2)coc2cc(O)ccc12` [daidzein] here?
**A.** no effect on melanogenesis

**Q.** Which “effect on melanin synthesis” value [11] does the source give for `O=C(O[C@@H]1Cc2c(O)cc(O)cc2O[C@@H]1c1cc(O)c(O)c(O)c1)c1cc(O)c(O)c(O)c1` [epigallocatechin gallate] here?
**A.** inhibition of melanin synthesis

**Q.** Which “effect on melanin production / melanogenesis” value [10] does the source give for `O=c1c(-c2ccc(O)cc2)coc2cc(O)cc(O)c12` [genistein] here?
**A.** increases melanin production

**Q.** With `O=c1c(O)c(-c2ccc(O)cc2O)oc2cc(O)cc(O)c12` [morin] as the compound, how does the tyrosinase inhibition [4] read?
**A.** tyrosinase inhibition

**Q.** Which tyrosinase inhibition [4] does the source give for `O=c1c(O)c(-c2cc(O)c(O)c(O)c2)oc2cc(O)cc(O)c12` [myricetin] here?
**A.** tyrosinase inhibition

**Q.** With `O=C(CCc1ccc(O)cc1)c1c(O)cc(O)cc1O` [phloretin] as the compound, how does the effect on melanogenesis ([5]; non-cytotoxic concentrations) read?
**A.** ineffective

**Q.** With `O=c1c(O)cc([C@H]2Oc3cc(O)cc(O)c3C[C@H]2O)cc2c([C@H]3Oc4cc(O)cc(O)c4C[C@H]3O)cc(O)c(O)c12` [theaflavin] as the compound, how does the tyrosinase inhibition [4] read?
**A.** tyrosinase inhibition

**Q.** With theaflavinmonogallate as the compound, how does the tyrosinase inhibition [4] read?
**A.** tyrosinase inhibition
